Measured values reported in ChEMBL document CHEMBL5523739, “NN1213 - A Potent, Long-Acting, and Selective Analog of Human Amylin” (J Med Chem, 2024).

How the values were obtained:
Rattus norvegicus [1] = experiment: Appetite suppressing activity in rat assessed as reduction in food intake at 30 nmol/kg, sc measured upto 24 hrs relative to control; assay type: functional; design: scale not given: the % may be the effect or the level left
[2] = Solubility of compound at pH 6.5 incubated overnight by UPLC analysis; assay type: physicochemical; conditions: buffer
Homo sapiens [3] = species: Homo sapiens; experiment: Selectivity ratio of IC50 for human CTR expressed in Baby hamster kidney cell membrane to IC50 for human AMY3R complex of CTR/RAMP3 expressed in Baby hamster kidney cell membrane; assay type: cell-based
[4] = molecular target: T1, Amylin receptor AMY3; CALCR/RAMP3 (Rattus norvegicus, UniProt P32214+Q9JJ73); experiment: Displacement of 125I-rat amylin from rat AMY3R complex of CTR/RAMP3 expressed in Baby hamster kidney cell membrane incubated for 120 mins by SPA method; assay type: cell membranes
T1 sequence (P32214 whole entry): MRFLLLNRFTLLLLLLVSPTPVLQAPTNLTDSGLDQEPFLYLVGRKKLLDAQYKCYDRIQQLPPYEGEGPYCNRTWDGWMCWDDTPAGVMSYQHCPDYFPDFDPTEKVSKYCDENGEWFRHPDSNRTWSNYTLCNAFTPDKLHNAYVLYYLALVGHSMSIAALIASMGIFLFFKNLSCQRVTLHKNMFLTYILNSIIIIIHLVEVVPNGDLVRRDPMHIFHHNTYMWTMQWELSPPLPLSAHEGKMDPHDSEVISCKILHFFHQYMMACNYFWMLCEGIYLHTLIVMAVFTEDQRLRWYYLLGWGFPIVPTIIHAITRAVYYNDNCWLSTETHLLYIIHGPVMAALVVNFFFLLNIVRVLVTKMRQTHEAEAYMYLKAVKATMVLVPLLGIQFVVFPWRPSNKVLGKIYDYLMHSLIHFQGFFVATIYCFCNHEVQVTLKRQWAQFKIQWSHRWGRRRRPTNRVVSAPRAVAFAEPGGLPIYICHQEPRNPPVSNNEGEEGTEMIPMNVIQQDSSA
T1 sequence (Q9JJ73 whole entry): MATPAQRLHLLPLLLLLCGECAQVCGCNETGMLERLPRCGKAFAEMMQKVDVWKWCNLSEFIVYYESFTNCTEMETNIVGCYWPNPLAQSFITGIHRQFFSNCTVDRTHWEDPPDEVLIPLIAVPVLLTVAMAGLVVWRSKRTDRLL

[5] = Solubility of compound at pH 6 incubated overnight by UPLC analysis; assay type: physicochemical; conditions: buffer
Rattus norvegicus [6] = species: Rattus norvegicus; experiment: Selectivity ratio of EC50 for rat CTR expressed in Baby hamster kidney cells to EC50 for rat AMY3R complex of CTR/RAMP3 expressed in Baby hamster kidney cells; assay type: cell-based
Calcitonin receptor [7] = molecular target: T2, Calcitonin receptor (Homo sapiens, UniProt P30988); experiment: Agonist activity at human CTR expressed in Baby hamster kidney cells incubated for 3 hrs followed by medium replacement without compound measured after 30 mins by luciferase reporter assay; assay type: functional, cell-based, Baby hamster kidney cell
T2 sequence (P30988 whole entry): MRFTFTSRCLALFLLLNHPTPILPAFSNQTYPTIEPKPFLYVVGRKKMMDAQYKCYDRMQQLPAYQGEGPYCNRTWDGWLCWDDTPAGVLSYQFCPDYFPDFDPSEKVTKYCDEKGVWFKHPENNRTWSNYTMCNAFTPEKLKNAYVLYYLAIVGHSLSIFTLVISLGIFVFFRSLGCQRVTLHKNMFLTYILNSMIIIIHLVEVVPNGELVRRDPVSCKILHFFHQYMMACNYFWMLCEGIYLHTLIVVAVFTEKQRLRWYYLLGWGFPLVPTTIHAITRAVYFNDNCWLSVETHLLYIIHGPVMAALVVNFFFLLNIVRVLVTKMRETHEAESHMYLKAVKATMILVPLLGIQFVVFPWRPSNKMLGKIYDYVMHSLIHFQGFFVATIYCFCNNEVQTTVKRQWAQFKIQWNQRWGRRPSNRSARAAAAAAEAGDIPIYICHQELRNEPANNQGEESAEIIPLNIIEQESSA

Calcitonin receptor [8] = molecular target: T3, Calcitonin receptor (Rattus norvegicus, UniProt P32214); experiment: Agonist activity at rat CTR expressed in Baby hamster kidney cells incubated for 3 hrs by cAMP assay; assay type: functional, cell-based, Baby hamster kidney cell
T3 sequence (P32214 whole entry): T1 sequence (P32214 whole entry)

[9] = Solubility of compound at pH 3 incubated overnight by UPLC analysis; assay type: physicochemical; conditions: buffer
[10] = Solubility of compound at pH 7 incubated overnight by UPLC analysis; assay type: physicochemical; conditions: buffer
Rattus norvegicus [11] = experiment: Appetite suppressing activity in rat assessed as reduction in food intake at 30 nmol/kg, sc measured for 24 to 48 hrs relative to control; assay type: functional; design: scale not given: the % may be the effect or the level left; conditions: time 24-48 hrs
Calcitonin receptor [12] = molecular target: T2, Calcitonin receptor; experiment: Displacement of 125I-Calcitonin from human CTR expressed in Baby hamster kidney cell membrane incubated for 120 mins by SPA method; assay type: cell membranes
Rattus norvegicus [13] = species: Rattus norvegicus; experiment: Selectivity ratio of IC50 for rat CTR expressed in Baby hamster kidney cell membrane to IC50 for rat AMY3R complex of CTR/RAMP3 expressed in Baby hamster kidney cell membrane; assay type: cell-based
[14] = molecular target: T4, Amylin receptor AMY3; CALCR/RAMP3 (Homo sapiens, UniProt O60896+P30988); experiment: Agonist activity at human AMY3R complex of CTR/RAMP3 expressed in Baby hamster kidney cells incubated for 3 hrs followed by medium replacement without compound measured after 30 mins by luciferase reporter assay; assay type: functional, cell-based, Baby hamster kidney cell
T4 sequence (P30988 whole entry): T2 sequence (P30988 whole entry)
T4 sequence (O60896 whole entry): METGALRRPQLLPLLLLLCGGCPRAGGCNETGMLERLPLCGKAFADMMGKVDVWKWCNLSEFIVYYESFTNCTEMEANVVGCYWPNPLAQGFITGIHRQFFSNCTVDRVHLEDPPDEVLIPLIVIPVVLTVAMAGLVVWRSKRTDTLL

[15] = Solubility of compound at pH 7.5 incubated overnight by UPLC analysis; assay type: physicochemical; conditions: buffer
[16] = Solubility of compound at pH 4 incubated overnight by UPLC analysis; assay type: physicochemical; conditions: buffer
[17] = Solubility of compound at pH 8 incubated overnight by UPLC analysis; assay type: physicochemical; conditions: buffer
Homo sapiens [18] = species: Homo sapiens; experiment: Selectivity ratio of EC50 for human CTR expressed in Baby hamster kidney cells to EC50 for human AMY3R complex of CTR/RAMP3 expressed in Baby hamster kidney cells; assay type: cell-based
[19] = Stability against amyloid fibril formation at pH 7.5 assessed as compound recovery at 1 uM measured after 45 hrs by ThT assay; assay type: physicochemical; conditions: pH 7.5, 45 h
[20] = Solubility of compound at pH 5 incubated overnight by UPLC analysis; assay type: physicochemical; conditions: buffer
[21] = Stability against amyloid fibril formation at pH 7.5 assessed as lag time at 1 uM measured after 45 hrs by ThT assay; assay type: physicochemical; conditions: pH 7.5, 45 h
[22] = molecular target: T1, Amylin receptor AMY3; CALCR/RAMP3; experiment: Agonist activity at rat AMY3R complex of CTR/RAMP3 expressed in Baby hamster kidney cells incubated for 3 hrs by cAMP assay; assay type: functional, cell-based, Baby hamster kidney cell
Calcitonin receptor [23] = molecular target: T3, Calcitonin receptor; experiment: Displacement of 125I-Calcitonin from rat CTR expressed in Baby hamster kidney cell membrane incubated for 120 mins by SPA method; assay type: cell membranes
[24] = molecular target: T4, Amylin receptor AMY3; CALCR/RAMP3; experiment: Displacement of 125I-rat amylin from human AMY3R complex of CTR/RAMP3 expressed in Baby hamster kidney cell membrane incubated for 120 mins by SPA method; assay type: cell membranes
[25] = molecular target: Calcitonin-gene-related peptide receptor, CALCRL/RAMP1 (Homo sapiens, UniProt O60894+Q16602); experiment: Agonist activity at human CGRPR complex of CRLR/RAMP1 transduced in human HeLa cells by cAMP assay; assay type: functional, cell-based; conditions: hela
Sequence of Calcitonin-gene-related peptide receptor, CALCRL/RAMP1 (O60894 whole entry): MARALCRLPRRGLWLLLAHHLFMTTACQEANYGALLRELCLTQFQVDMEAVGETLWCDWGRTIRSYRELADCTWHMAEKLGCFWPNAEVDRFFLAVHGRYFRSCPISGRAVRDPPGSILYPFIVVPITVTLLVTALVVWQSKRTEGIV
Sequence of Calcitonin-gene-related peptide receptor, CALCRL/RAMP1 (Q16602 whole entry): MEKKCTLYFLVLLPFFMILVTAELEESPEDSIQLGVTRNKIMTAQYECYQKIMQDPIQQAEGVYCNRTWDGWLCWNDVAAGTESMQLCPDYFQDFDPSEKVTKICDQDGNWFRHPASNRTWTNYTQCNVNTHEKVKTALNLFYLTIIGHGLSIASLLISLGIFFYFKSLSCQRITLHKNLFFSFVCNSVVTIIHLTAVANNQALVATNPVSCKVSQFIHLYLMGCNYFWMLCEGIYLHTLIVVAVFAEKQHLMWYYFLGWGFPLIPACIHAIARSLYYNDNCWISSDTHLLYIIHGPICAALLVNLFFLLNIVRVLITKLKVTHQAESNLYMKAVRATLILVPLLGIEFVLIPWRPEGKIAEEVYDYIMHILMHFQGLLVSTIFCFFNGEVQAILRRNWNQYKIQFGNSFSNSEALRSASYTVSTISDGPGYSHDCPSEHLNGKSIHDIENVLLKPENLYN

[26] = molecular target: Adrenomedullin receptor, AM2; CALCRL/RAMP3 (Homo sapiens, UniProt Q16602+O60896); experiment: Agonist activity at human AM2R complex of CRLR/RAMP3 transduced in human HeLa cells by cAMP assay; assay type: functional, cell-based
Sequence of Adrenomedullin receptor, AM2; CALCRL/RAMP3 (Q16602 whole entry, one chain of several): as the sequence (Q16602 whole entry) above

Calcitonin receptor [27] = molecular target: T2, Calcitonin receptor; experiment: Agonist activity at human CTR transduced in human HeLa cells by cAMP assay; assay type: functional, cell-based; conditions: hela
[28] = molecular target: Amylin receptor AMY1, CALCR/RAMP1 (Homo sapiens, UniProt P30988+O60894); experiment: Agonist activity at human AMY1R complex of CTR/RAMP1 transduced in human HeLa cells by cAMP assay; assay type: functional, cell-based; conditions: hela
Sequence of Amylin receptor AMY1, CALCR/RAMP1 (O60894 whole entry, one chain of several): as the sequence (O60894 whole entry) above

[29] = molecular target: T5, Amylin receptor AMY3; CALCR/RAMP3 (Homo sapiens, UniProt P30988+O60896); experiment: Agonist activity at human AMY3R complex of CTR/RAMP3 transduced in human HeLa cells by cAMP assay; assay type: functional, cell-based
T5 sequence (P30988 whole entry): T2 sequence (P30988 whole entry)
T5 sequence (O60896 whole entry): T4 sequence (O60896 whole entry)

[30] = molecular target: Amylin receptor AMY2; CALCR/RAMP2 (Homo sapiens, UniProt P30988+O60895); experiment: Agonist activity at human AMY2R complex of CTR/RAMP2 transduced in human HeLa cells by cAMP assay; assay type: functional, cell-based; conditions: hela
Sequence of Amylin receptor AMY2; CALCR/RAMP2 (O60895 whole entry, one chain of several): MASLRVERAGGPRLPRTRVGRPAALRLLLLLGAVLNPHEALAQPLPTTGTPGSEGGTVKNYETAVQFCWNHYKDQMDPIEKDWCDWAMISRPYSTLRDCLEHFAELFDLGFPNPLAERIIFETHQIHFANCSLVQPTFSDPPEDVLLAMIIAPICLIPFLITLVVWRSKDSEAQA

**Q.** Which Activity (Rattus norvegicus [1]) does the source give for `CC[C@H](C)[C@H](NC(=O)[C@H](C)NC(=O)CNC(=O)[C@H](Cc1ccccc1)NC(=O)[C@H](CC(N)=O)NC(=O)[C@@H]1CCCN1C(=O)[C@H](CO)NC(=O)[C@H](CO)NC(=O)[C@H](Cc1c[nH]cn1)NC(=O)[C@H](CCCNC(=N)N)NC(=O)[C@H](CC(C)C)NC(=O)[C@H](Cc1ccccc1)NC(=O)[C@H](CC(N)=O)NC(=O)[C@H](C)NC(=O)[C@H](CC(C)C)NC(=O)[C@H](CCCNC(=N)N)NC(=O)[C@H](CCC(N)=O)NC(=O)[C@@H](NC(=O)[C@H](C)NC(=O)[C@@H]1CSSC[C@H](NC(=O)[C@@H](N)CCCCN)C(=O)N[C@@H](CC(N)=O)C(=O)N[C@@H]([C@@H](C)O)C(=O)N[C@@H](C)C(=O)N[C@@H]([C@@H](C)O)C(=O)N1)[C@@H](C)O)C(=O)N1CCC[C@H]1C(=O)N[C@@H](CO)C(=O)N[C@@H](CO)C(=O)N[C@H](C(=O)N[C@@H](CC(N)=O)C(=O)N[C@H](C(=O)NCC(=O)N[C@@H](CO)C(=O)N[C@@H](CC(N)=O)C(=O)N[C@H](C(=O)N[C@@H](Cc1ccc(O)cc1)C(N)=O)[C@@H](C)O)C(C)C)[C@@H](C)O` here?
**A.** 22%

**Q.** What about the solubility [2] of the same molecule?
**A.** ≥ 200 µM

**Q.** And the Ratio IC50 (Homo sapiens [3])?
**A.** 90

**Q.** And the IC50 [4]?
**A.** 3.01 nM

**Q.** And the solubility [5]?
**A.** ≥ 200 µM

**Q.** And the Ratio EC50 (Rattus norvegicus [6])?
**A.** 79

**Q.** What about the EC50 (Calcitonin receptor [7]) of the same molecule?
**A.** 10 nM

**Q.** And the EC50 (Calcitonin receptor [8])?
**A.** 142 nM

**Q.** What about the solubility [9] of the same molecule?
**A.** ≥ 200 µM

**Q.** And the solubility [10]?
**A.** ≥ 200 µM

**Q.** What about the Activity (Rattus norvegicus [11]) of the same molecule?
**A.** 1%

**Q.** What about the IC50 (Calcitonin receptor [12]) of the same molecule?
**A.** 102 nM

**Q.** What about the Ratio IC50 (Rattus norvegicus [13]) of the same molecule?
**A.** 116

**Q.** And the EC50 [14]?
**A.** 0.432 nM

**Q.** And the solubility [15]?
**A.** ≥ 200 µM

**Q.** What about the solubility [16] of the same molecule?
**A.** ≥ 200 µM

**Q.** And the solubility [17]?
**A.** ≥ 200 µM

**Q.** What about the Ratio EC50 (Homo sapiens [18]) of the same molecule?
**A.** 23

**Q.** What about the Drug recovery [19] of the same molecule?
**A.** 0%

**Q.** And the solubility [20]?
**A.** ≥ 200 µM

**Q.** And the Time [21]?
**A.** 34 h

**Q.** What about the EC50 [22] of the same molecule?
**A.** 1.79 nM

**Q.** And the IC50 (Calcitonin receptor [23])?
**A.** 350 nM

**Q.** What about the IC50 [24] of the same molecule?
**A.** 1.14 nM

**Q.** Which pEC50 [25] does the source give for CAGRILINTIDE here?
**A.** 6.25

**Q.** And the pEC50 [26]?
**A.** 6.12

**Q.** What about the pEC50 (Calcitonin receptor [27]) of the same molecule?
**A.** 10.64

**Q.** And the pEC50 [28]?
**A.** 10.73

**Q.** And the pEC50 [29]?
**A.** 10.33

**Q.** And the pEC50 [30]?
**A.** 10.37
